# Measured values reported in PubChem BioAssay (NCI).
#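 Protocol summary: plate cells (96-well), add compound at 5 concentrations, incubate 48 h, interpolate endpoints linearly. The concentration for full growth arrest is given as TGI.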
# Legend:
# Test in all cases: DTP human tumour cell line panel, 48 h
# [1] = system: 786-0 renal
# [2] = system: A498 renal
# [3] = system: A549 NSCLC
# [4] = system: ACHN renal
# [5] = system: BT-549 breast
# [6] = system: CAKI-1 renal
# [7] = system: CCRF-CEM leukemia
# [8] = system: COLO 205 colon
# [9] = system: DU-145 prostate
# [10] = system: EKVX NSCLC
# [11] = system: HCC-2998 colon
# [12] = system: HCT-116 colon
# [13] = system: HCT-15 colon
# [14] = system: HOP-62 NSCLC
# [15] = system: HOP-92 NSCLC
# [16] = system: HS 578T breast
# [17] = system: HT29 colon
# [18] = system: IGROV1 ovarian
# [19] = system: K-562 leukemia
# [20] = system: KM12 colon
# [21] = system: LOX IMVI melanoma
# [22] = system: M14 melanoma
# [23] = system: MALME-3M melanoma
# [24] = system: MCF7 breast
# [25] = system: MDA-MB-231 breast
# [26] = system: MDA-MB-435
# [27] = system: MDA-N
# [28] = system: MOLT-4 leukemia
# [29] = system: NCI-H226 lung
# [30] = system: NCI-H23 lung
# [31] = system: NCI-H460 lung
# [32] = system: NCI-H522 lung
# [33] = system: NCI/ADR-RES ovarian
# [34] = system: OVCAR-3 ovarian
# [35] = system: OVCAR-4 ovarian
# [36] = system: OVCAR-5 ovarian
# [37] = system: OVCAR-8 ovarian
# [38] = system: PC-3 prostate
# [39] = system: RPMI-8226 leukemia
# [40] = system: RXF 393 renal
# [41] = system: SF-268 CNS
# [42] = system: SF-295 CNS
# [43] = system: SF-539 CNS
# [44] = system: SK-MEL-2 melanoma
# [45] = system: SK-MEL-28 melanoma
# [46] = system: SK-OV-3 ovarian
# [47] = system: SNB-19 CNS
# [48] = system: SNB-75 CNS
# [49] = system: SW-620 colon
# [50] = system: T-47D breast
# [51] = system: TK-10 renal
# [52] = system: U251 CNS
# [53] = system: UACC-257 melanoma
# [54] = system: UACC-62 melanoma
# [55] = system: UO-31 renal
# [56] = system: HL-60(TB) leukemia
# [57] = system: SK-MEL-5 melanoma
# [58] = system: SN12C renal
# [59] = system: SR leukemia
smiles,measurement,setting,value
COc1ccc(/C=N/n2c(Cc3ccc(Cl)cc3)n[nH]c2=O)c(OC)c1,TGI,[1],52.8 µM
same,TGI,[2],51.1 µM
same,TGI,[3],> 100 µM
same,TGI,[4],> 100 µM
same,TGI,[5],67 µM
same,TGI,[6],> 100 µM
same,TGI,[7],> 100 µM
same,TGI,[8],> 100 µM
same,TGI,[9],> 100 µM
same,TGI,[10],> 100 µM
same,TGI,[11],> 100 µM
same,TGI,[12],> 100 µM
same,TGI,[13],> 100 µM
same,TGI,[14],> 100 µM
same,TGI,[15],65.9 µM
same,TGI,[16],37.3 µM
same,TGI,[17],75.1 µM
same,TGI,[18],> 100 µM
same,TGI,[19],> 100 µM
same,TGI,[20],> 100 µM
same,TGI,[21],> 100 µM
same,TGI,[22],> 100 µM
same,TGI,[23],> 100 µM
same,TGI,[24],> 100 µM
same,TGI,[25],> 100 µM
same,TGI,[26],> 100 µM
same,TGI,[27],> 100 µM
same,TGI,[28],> 100 µM
same,TGI,[29],61.2 µM
same,TGI,[30],> 100 µM
same,TGI,[31],> 100 µM
same,TGI,[32],37.4 µM
same,TGI,[33],45.2 µM
same,TGI,[34],> 100 µM
same,TGI,[35],41.6 µM
same,TGI,[36],> 100 µM
same,TGI,[37],95.5 µM
same,TGI,[38],> 100 µM
same,TGI,[39],> 100 µM
same,TGI,[40],41.7 µM
same,TGI,[41],32 µM
same,TGI,[42],42.9 µM
same,TGI,[43],> 100 µM
same,TGI,[44],> 100 µM
same,TGI,[45],> 100 µM
same,TGI,[46],> 100 µM
same,TGI,[47],48.4 µM
same,TGI,[48],37.5 µM
same,TGI,[49],> 100 µM
same,TGI,[50],> 100 µM
same,TGI,[51],52.2 µM
same,TGI,[52],> 100 µM
same,TGI,[53],> 100 µM
same,TGI,[54],66.6 µM
same,TGI,[55],> 100 µM
O=C1C[C@H](c2ccccc2)C2(C(=O)c3ccccc3C2=O)[C@H](c2ccccc2)C1,TGI,[2],> 100 µM
same,TGI,[5],> 100 µM
same,TGI,[6],> 100 µM
same,TGI,[7],> 100 µM
same,TGI,[8],> 100 µM
same,TGI,[9],> 100 µM
same,TGI,[11],> 100 µM
same,TGI,[12],> 100 µM
same,TGI,[13],> 100 µM
same,TGI,[56],> 100 µM
same,TGI,[14],96 µM
same,TGI,[15],> 100 µM
same,TGI,[16],> 100 µM
same,TGI,[17],> 100 µM
same,TGI,[18],> 100 µM
same,TGI,[19],> 100 µM
same,TGI,[20],> 100 µM
same,TGI,[22],> 100 µM
same,TGI,[23],> 100 µM
same,TGI,[25],80.2 µM
same,TGI,[26],> 100 µM
same,TGI,[27],> 100 µM
same,TGI,[28],> 100 µM
same,TGI,[29],> 100 µM
same,TGI,[30],> 100 µM
same,TGI,[31],> 100 µM
same,TGI,[32],> 100 µM
same,TGI,[33],> 100 µM
same,TGI,[34],> 100 µM
same,TGI,[35],> 100 µM
same,TGI,[36],> 100 µM
same,TGI,[37],> 100 µM
same,TGI,[38],> 100 µM
same,TGI,[39],> 100 µM
same,TGI,[40],50.5 µM
same,TGI,[42],> 100 µM
same,TGI,[44],> 100 µM
same,TGI,[45],> 100 µM
same,TGI,[57],> 100 µM
same,TGI,[46],> 100 µM
same,TGI,[58],> 100 µM
same,TGI,[47],> 100 µM
same,TGI,[48],> 100 µM
same,TGI,[59],> 100 µM
same,TGI,[50],> 100 µM
same,TGI,[52],> 100 µM
same,TGI,[54],> 100 µM
same,TGI,[55],> 100 µM
